Test results: article PMC7139656, “The Landscape of the Anti-Kinase Activity of the IDH1 Inhibitors” (Cancers, 2020)

What was measured:
ABL1 recombinant protein = system: ABL1 recombinant protein; set-up: method as in PMID 19679652; conditions: cited from earlier work
[1] = system: mutant IDH1 (2-HG production) in K562 cells; assay: Mutant IDH1 activity - D-2-hydroxyglutarate production in K562 cells; format: cell-based, human; conditions: 24-h incubation; for D-2-HG level after treatment (decrease to): 30 μM
Description: The K562 and U-251 cells were seeded in 3-cm Petri dishes (Nunc) at a density of 0.5 × 10^6 cells/well and incubated at 37 °C for 24 h. […] After a 24-h treatment, the assays were performed using a D-2-Hydroxyglutarate Assay Kit (Abcam) according to the manufacturer’s instructions. Briefly, 25 μL of each cell lysate was transferred onto 96-well plates. Internal and external standards (containing 1 mM D2HG) were also prepared. Then, a freshly prepared reaction mix containing D2HG Assay Buffer, D2HG Enzyme and D2HG Substrate Mix was added to each well. Reaction mixes with the cell lysates were incubated for 60 min at 37 °C in the dark. The optical densities of the samples were analyzed at 450 nm using a Synergy 4 multi-plate reader. The experiments were performed at least four times. The D-2-Hydroxyglutarate concentration is expressed as nM/μL.

IDH1 R132H = conditions: cited from earlier work
ABL1 native = molecular target: T1, ABL1 native (Homo sapiens, UniProt P00519); assay: Tyrosine kinase inhibition in vitro (Kinase Selectivity TK-2 Profiling System, ADP-Glo); format: biochemical; conditions: for inhibition at 0.5 µM: compound at 0.5 μM, read-out: Inhibitory Effect of the Non-Receptor Tyrosine Kinase Activity, ABL1 native
T1 construct: purchased Promega
Description: (§1) The inhibition of the tyrosine kinases by the tested compounds was measured using the Kinase Selectivity TK-2 Profiling Systems (Promega) as was previously reported. Briefly, the kinases (ABL1; BRK; BTK; CSK; Fyn A; Lck; Lyn B; Src) and substrate/co factor strips were prepared according to the manufacturer’s instructions. The compounds being tested were dissolved in DMSO to a concentration of 100 μM, which was then used as the stock solution to prepare the 0.5 μM final concentration in a 1x Kinase Reaction Buffer (40 mM Tris – pH 7.5; 20 mM MgCl2; 0.1 mg/mL BSA; 50 μM DTT). The experiment began with transferring 1 μl of the prepared solutions of the tested compounds onto a 384-well white plate that was designed for luminescence (Corning). Then, 2 μL of the kinases from the eight-well strip were added into each well and the plate was incubated for 10 min at room temperature (RT), after which 2 μL of the substrates from the eight-well substrate/co-factor strip were added to each well and the plate was left at RT for 1 h. Solutions of 1x Kinase Reaction Buffer with 5% vehicle (DMSO) were used as the negative controls without an inhibitor or enzymes. The activity of each kinase was determined using an ADP-Glo Kinase Assay (Promega). Firstly, in order to stop the reaction, 5 μL of ADP-Glo reagent was added to each well and the plate was incubated for 40 min at RT. Afterwards, 10 μL of the Kinase Detection Reagent was added to each well and the luminescence was measured in a Synergy 4 multi-plate reader following a 30-min incubation at RT. […] The data are expressed as the percentage of the inhibition of tyrosine kinase after treatment with the tested compounds.

ABL1 T315I = molecular target: T2, ABL1 T315I (Homo sapiens, UniProt P00519, T315I); assay: ABL (T315I) Kinase Assay (ADP-Glo); format: biochemical; conditions: for inhibition at 0.5 µM: compound at 0.5 μM, read-out: Inhibitory Effect of the Non-Receptor Tyrosine Kinase Activity, ABL1 T315I
T2 construct: purchased Promega
Description: as §1
Briefly, the solutions of the compounds being tested at various concentrations were prepared in a 1x Kinase Reaction Buffer. Firstly, 1 μl of the solutions of the tested compounds or vehicle – 5% DMSO (as the control without an inhibitor) were added onto a 384-well low volume white plate. […] After 10 min of incubation at RT, 2 μL of the substrate/ATP mixture was added to each well and incubated for 1h at RT. The luminescence of the kinase activity after treatment with the tested compounds was measured using an ADP-Glo Kinase Assay as was described above. The experiments were performed three times and the results are presented as the IC50 values, which were calculated using GraphPad Prism 7.

BRK = molecular target: T3, BRK (Homo sapiens, UniProt Q13882); assay: Tyrosine kinase inhibition in vitro (TK-2 panel, ADP-Glo); format: biochemical; conditions: compound at 0.5 μM; read-out: Inhibitory Effect of the Non-Receptor Tyrosine Kinase Activity, BRK
T3 construct: purchased Promega
Description: as §1

BTK = molecular target: T4, BTK (Homo sapiens, UniProt Q06187); assay: as above; format: biochemical; conditions: for inhibition at 0.5 µM: compound at 0.5 μM, read-out: Inhibitory Effect of the Non-Receptor Tyrosine Kinase Activity, BTK
T4 construct: purchased Promega
Description: as §1

CSK = molecular target: T5, CSK (Homo sapiens, UniProt P41240); assay: as above; format: biochemical; conditions: compound at 0.5 μM; read-out: Inhibitory Effect of the Non-Receptor Tyrosine Kinase Activity, CSK
T5 construct: purchased Promega
Description: as §1

Fyn A = molecular target: T6, Fyn A (Homo sapiens, UniProt P06241); assay: as above; format: biochemical; conditions: for inhibition at 0.5 µM: compound at 0.5 μM, read-out: Inhibitory Effect of the Non-Receptor Tyrosine Kinase Activity, Fyn A
T6 construct: purchased Promega
Description: as §1

Lck = molecular target: T7, Lck (Homo sapiens, UniProt P06239); assay: as above; format: biochemical; conditions: compound at 0.5 μM; read-out: Inhibitory Effect of the Non-Receptor Tyrosine Kinase Activity, Lck
T7 construct: purchased Promega
Description: as §1

Src = molecular target: T8, Src (Homo sapiens, UniProt P12931); assay: as above; format: biochemical; conditions: compound at 0.5 μM; read-out: Inhibitory Effect of the Non-Receptor Tyrosine Kinase Activity, Src
T8 construct: purchased Promega
Description: as §1

Lyn B = molecular target: T9, Lyn B (Homo sapiens, UniProt P07948); assay: as above; format: biochemical; conditions: for inhibition at 0.5 µM: compound at 0.5 μM, read-out: Inhibitory Effect of the Non-Receptor Tyrosine Kinase Activity, Lyn B
T9 construct: purchased Promega

HCT 116 p53+/+ = assay: Cytotoxicity / antiproliferative activity, MTS test; format: cell-based; conditions: Homo sapiens, 72-h incubation
Description: (§2) M. Rusin from the Maria Sklodowska-Curie Memorial Cancer Centre and Institute of Oncology in Gliwice, Poland. […] G. Kramer-Marek from The Institute of Cancer Research in London, United Kingdom. The pancreatic cell line PANC-1 and the human chronic myelogenous leukemia cell line K562 were purchased from Sigma-Aldrich. […] All of these cell lines were grown under standard conditions at 37 °C in a 5% CO2 humidified atmosphere. Prior to beginning the experiments, all of the cell lines were subjected to routine mycoplasma testing with specific Mycoplasma primers using the PCR technique.
(§3) The exponentially growing cells for all of the cell lines were seeded in 96-well plates (Nunc) at a density of 5000 cells/well and incubated at 37 °C for 24 h. The assay was performed following a 72-h incubation with the various concentrations of the compounds that were being tested. Then, 20 µL of CellTiter 96®AQueous One Solution-MTS (Promega) solution was added to each well (with 100 µL DMEM without phenol red) and incubated for 1 h at 37 °C. The optical densities of the samples were analyzed at 490 nm using a multi-plate reader (Synergy 4, BioTek). The results are expressed as the percentage of the control and were calculated as the inhibitory concentration (IC50) values using GraphPad Prism 7. Each individual compound was tested in triplicate in a single experiment with each experiment being repeated five times.

HCT 116 p53-/- = assay: as above; format: cell-based; conditions: Homo sapiens, 72-h incubation
Description: as §2, §3

K562 = assay: as above; format: cell-based; conditions: Homo sapiens, 72-h incubation
Description: as §2, §3

MCF-7 = assay: as above; format: cell-based; conditions: Homo sapiens, MCF7, 72-h incubation
Description: as §2, §3

PANC-1 = assay: as above; format: cell-based; conditions: Homo sapiens, 72-h incubation
Description: as §2, §3

U-251 = assay: as above; format: cell-based; conditions: Homo sapiens, 72-h incubation
Description: as §2, §3

ABL1 enzyme = ABL1 enzyme (Homo sapiens, UniProt P00519); assay: Pharmacological synergy on the ABL enzyme model (TOS inhibitors and axitinib, ABL1 Kinase Assay, Chou-Talalay); conditions: for Combination index [CI]: combination with axitinib, for Fa = 0.9, CI < 1 synergy, CompuSyn
Description: The experiments were performed at least three times. The synergy was calculated according to the Chou-Talay method (CompuSyn software) [33, 70]. Briefly, the concentration range was adjusted to cover the specified IC50 value against the ABL1 enzyme for each inhibitor.

wild-type IDH1 = conditions: cited from earlier work

T9 sequence (P07948 1-491 isoform P07948-2): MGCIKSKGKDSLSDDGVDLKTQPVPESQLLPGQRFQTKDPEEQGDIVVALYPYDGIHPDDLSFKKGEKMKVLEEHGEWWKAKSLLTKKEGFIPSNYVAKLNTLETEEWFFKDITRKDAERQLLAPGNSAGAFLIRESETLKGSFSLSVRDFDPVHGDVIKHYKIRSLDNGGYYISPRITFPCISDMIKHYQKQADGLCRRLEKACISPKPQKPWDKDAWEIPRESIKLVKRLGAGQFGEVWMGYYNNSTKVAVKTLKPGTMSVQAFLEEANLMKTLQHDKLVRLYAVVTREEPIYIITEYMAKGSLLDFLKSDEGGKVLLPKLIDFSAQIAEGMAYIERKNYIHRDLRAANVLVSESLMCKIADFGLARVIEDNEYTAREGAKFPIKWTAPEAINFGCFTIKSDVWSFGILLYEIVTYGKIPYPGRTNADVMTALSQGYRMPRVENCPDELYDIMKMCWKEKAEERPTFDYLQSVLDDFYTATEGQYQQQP
T6 sequence (P06241 whole entry): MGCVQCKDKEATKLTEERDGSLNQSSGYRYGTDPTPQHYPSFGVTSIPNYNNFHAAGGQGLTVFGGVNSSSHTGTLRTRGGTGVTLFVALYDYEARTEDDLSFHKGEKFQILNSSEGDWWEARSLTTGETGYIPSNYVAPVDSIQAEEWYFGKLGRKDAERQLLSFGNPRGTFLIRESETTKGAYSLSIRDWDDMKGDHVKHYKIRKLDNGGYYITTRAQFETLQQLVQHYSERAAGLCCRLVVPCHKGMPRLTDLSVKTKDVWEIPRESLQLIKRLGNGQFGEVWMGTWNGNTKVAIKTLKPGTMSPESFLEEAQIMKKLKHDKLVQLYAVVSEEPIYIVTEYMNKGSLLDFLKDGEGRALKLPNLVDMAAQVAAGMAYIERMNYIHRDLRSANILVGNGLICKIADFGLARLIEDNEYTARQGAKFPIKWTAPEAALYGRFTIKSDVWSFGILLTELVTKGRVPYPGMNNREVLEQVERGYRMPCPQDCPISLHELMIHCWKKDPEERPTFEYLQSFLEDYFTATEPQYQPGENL
T4 sequence (Q06187 whole entry): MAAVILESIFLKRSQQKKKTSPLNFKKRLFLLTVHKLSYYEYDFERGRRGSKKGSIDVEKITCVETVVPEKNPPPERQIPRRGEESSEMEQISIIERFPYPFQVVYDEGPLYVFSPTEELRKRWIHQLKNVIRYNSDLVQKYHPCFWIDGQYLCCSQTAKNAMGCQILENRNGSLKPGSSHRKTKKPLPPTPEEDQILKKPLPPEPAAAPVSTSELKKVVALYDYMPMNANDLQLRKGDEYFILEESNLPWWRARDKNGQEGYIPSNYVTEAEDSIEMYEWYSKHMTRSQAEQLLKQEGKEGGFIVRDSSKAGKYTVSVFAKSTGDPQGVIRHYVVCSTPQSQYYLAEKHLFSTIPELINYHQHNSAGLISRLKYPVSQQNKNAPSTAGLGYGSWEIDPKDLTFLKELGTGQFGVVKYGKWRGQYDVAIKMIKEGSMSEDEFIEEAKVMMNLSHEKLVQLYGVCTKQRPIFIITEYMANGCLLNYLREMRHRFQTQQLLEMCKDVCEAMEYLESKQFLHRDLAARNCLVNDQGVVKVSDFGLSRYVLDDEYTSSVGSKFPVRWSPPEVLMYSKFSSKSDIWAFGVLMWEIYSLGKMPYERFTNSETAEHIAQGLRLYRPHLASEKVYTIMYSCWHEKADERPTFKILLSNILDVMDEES
T7 sequence (P06239 whole entry): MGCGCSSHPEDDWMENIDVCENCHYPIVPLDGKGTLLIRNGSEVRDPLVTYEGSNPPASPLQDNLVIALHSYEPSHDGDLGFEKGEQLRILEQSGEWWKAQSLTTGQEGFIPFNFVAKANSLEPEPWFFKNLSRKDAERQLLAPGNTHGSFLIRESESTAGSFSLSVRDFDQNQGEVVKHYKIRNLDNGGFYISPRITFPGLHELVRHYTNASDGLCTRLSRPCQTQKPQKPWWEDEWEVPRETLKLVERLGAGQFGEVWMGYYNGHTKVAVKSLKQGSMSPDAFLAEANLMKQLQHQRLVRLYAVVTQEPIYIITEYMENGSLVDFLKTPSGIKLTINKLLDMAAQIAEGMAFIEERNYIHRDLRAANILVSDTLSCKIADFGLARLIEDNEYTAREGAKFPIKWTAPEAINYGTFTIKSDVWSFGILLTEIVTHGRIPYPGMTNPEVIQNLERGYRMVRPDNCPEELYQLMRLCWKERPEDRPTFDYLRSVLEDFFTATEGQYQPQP
T3 sequence (Q13882 whole entry): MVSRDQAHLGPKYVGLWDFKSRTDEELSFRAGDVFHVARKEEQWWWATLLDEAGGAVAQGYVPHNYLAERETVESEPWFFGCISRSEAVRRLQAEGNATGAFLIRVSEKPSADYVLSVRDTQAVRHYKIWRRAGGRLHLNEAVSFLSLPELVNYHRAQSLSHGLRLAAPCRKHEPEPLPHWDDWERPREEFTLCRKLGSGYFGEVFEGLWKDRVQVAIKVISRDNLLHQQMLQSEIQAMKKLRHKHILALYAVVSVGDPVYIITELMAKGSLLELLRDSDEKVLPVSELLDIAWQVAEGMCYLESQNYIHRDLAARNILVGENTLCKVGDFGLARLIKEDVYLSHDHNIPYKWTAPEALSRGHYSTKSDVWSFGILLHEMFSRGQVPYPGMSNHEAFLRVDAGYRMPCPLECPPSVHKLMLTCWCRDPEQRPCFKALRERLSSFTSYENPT
T5 sequence (P41240 whole entry): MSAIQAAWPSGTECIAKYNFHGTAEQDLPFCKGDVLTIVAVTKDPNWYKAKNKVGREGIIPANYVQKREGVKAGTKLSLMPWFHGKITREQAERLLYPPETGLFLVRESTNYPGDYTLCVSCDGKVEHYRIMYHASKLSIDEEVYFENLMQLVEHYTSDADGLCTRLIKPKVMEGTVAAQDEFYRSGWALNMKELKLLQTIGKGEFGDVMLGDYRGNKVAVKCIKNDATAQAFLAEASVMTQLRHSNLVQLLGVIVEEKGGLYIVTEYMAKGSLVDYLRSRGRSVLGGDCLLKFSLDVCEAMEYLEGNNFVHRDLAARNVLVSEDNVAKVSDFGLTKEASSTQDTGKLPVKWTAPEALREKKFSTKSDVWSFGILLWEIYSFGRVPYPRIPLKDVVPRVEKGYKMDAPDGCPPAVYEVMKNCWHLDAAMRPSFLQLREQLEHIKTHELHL
T8 sequence (P12931 whole entry): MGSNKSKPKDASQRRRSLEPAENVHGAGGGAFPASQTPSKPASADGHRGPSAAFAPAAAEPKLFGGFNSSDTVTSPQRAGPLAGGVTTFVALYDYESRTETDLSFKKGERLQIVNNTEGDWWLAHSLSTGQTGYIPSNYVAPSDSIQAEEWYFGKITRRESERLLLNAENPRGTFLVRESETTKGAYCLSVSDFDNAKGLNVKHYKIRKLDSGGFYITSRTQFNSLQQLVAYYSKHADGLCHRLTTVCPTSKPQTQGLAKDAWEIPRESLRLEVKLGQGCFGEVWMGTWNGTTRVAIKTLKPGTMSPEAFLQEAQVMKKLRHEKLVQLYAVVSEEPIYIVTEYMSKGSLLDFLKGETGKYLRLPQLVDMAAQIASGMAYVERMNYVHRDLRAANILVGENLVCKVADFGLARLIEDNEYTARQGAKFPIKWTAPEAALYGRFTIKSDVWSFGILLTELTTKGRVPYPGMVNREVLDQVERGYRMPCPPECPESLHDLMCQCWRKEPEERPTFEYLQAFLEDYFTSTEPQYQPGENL

SMILES | IC50 (ABL1 native) [nM] | inhibition at 0.5 µM (ABL1 native) [%] | IC50 (ABL1 T315I) [µM] | inhibition at 0.5 µM (ABL1 T315I) [%] | inhibition at 0.5 µM (BRK) [%] | IC50 (BTK) [nM] | inhibition at 0.5 µM (BTK) [%] | inhibition at 0.5 µM (CSK) [%] | inhibition at 0.5 µM (Fyn A) [%] | inhibition at 0.5 µM (Lck) [%] | inhibition at 0.5 µM (Src) [%] | IC50 (Lyn B) [µM] | inhibition at 0.5 µM (Lyn B) [%] | IC50 (HCT 116 p53+/+) [µM] | IC50 (HCT 116 p53-/-) [µM] | IC50 (K562) [µM] | IC50 (MCF-7) [µM] | IC50 (PANC-1) [µM] | IC50 (U-251) [µM] | D-2-HG level after treatment (decrease to) [1] [%] | also measured
NC(=O)c1cccc(-c2cc(Nc3ccc(OC(F)(F)F)cc3)ncn2)c1 [GNF-2] |  |  |  |  |  |  |  |  |  |  |  |  |  |  |  |  |  |  |  |  | level of activity towards recombinant ABL1 protein (ABL1 recombinant protein): ~ 1 μM
CNC(=O)c1ccccc1Sc1ccc2c(/C=C/c3ccccn3)n[nH]c2c1 [Axitinib, axitinib, reference compound] |  |  |  |  |  |  |  |  |  |  |  |  |  |  |  |  |  |  |  |  | reduced level of 2-hydroxyglutarate ([1]; axitinib 0.5 μM): 46%
C[C@H](O)c1cccc(NC(=O)c2nn(Cc3ccc(F)cc3)c3c2CN(C(=O)c2ccc[nH]2)C[C@H]3C)c1 [GSK-321] |  |  |  |  |  |  |  |  |  |  |  |  |  |  |  |  |  |  |  |  | inhibitory activity against IDH1 R132H in biochemical tests (IDH1 R132H): 4.6 nM
CCCCc1ccc(NS(=O)(=O)c2ccc(C)c(C(=O)N3CCN(c4ccccc4OCCF)CC3)c2)cc1 [TOS-2, N-(4-butylphenyl)-3-{4-[2-(2-fluoroethoxy)phenyl]piperazine-1-carbonyl}-4-methylbenzene-1-sulfonamide] | 401 | 59.2 ± 8.12 | > 10 | 26.1 ± 6.61 | 0 | 522 | 50.9 ± 1.87 | 9.66 ± 3.59 | 19.6 ± 2.78 | 0 | 13.8 ± 4.23 | 5 | 0 | 24.4 ± 0.82 | 28.9 ± 1.07 | 17.3 ± 2.23 | 15.6 ± 1.35 | 18.9 ± 0.42 | > 30 | 48 | Fa (fraction affected), combination with axitinib (ABL1 enzyme; TOS-2 0.0625 µM + axitinib 0.0625 µM): 0.354; Fa (fraction affected), combination with axitinib (ABL1 enzyme; TOS-2 0.125 µM + axitinib 0.125 µM): 0.4632; Fa (fraction affected), combination with axitinib (ABL1 enzyme; TOS-2 0.25 µM + axitinib 0.25 µM): 0.6215; Fa (fraction affected), combination with axitinib (ABL1 enzyme; TOS-2 0.5 µM + axitinib 0.5 µM): 0.6852; Fa (fraction affected), combination with axitinib (ABL1 enzyme; TOS-2 1 µM + axitinib 1 µM): 0.8101; Combination index [CI] (ABL1 enzyme): 0.75; Fa (fraction affected), single agent (ABL1 enzyme; dose 0.0625 µM): 0.07245; Fa (fraction affected), single agent (ABL1 enzyme; dose 0.125 µM): 0.2475; Fa (fraction affected), single agent (ABL1 enzyme; dose 0.25 µM): 0.3737; Fa (fraction affected), single agent (ABL1 enzyme; dose 0.5 µM): 0.518; Fa (fraction affected), single agent (ABL1 enzyme; dose 1 µM): 0.638
N#Cc1ccnc(N2C(=O)CC[C@H]2C(=O)N(c2cncc(F)c2)[C@H](C(=O)NC2CC(F)(F)C2)c2ccccc2Cl)c1 [ivosidenib] |  |  |  |  |  |  |  |  |  |  |  |  |  |  |  |  |  |  |  |  | IC50 (wild-type IDH1): 24 nM; IC50 (IDH1 R132H; read-out: IC50 IDH1 mutant): 12 nM
CCCCc1ccc(NS(=O)(=O)c2ccc(C)c(C(=O)N3CCN(c4ccccc4O)CC3)c2)cc1 [TOS-1, N-(4-butylphenyl)-3-[4-(2-hydroxyphenyl)piperazine-1-carbonyl]-4-methylbenzene-1-sulfonamide] | 934 | 42.8 ± 8.46 | 5.02 | 29.3 ± 7.43 | 22.6 ± 0.94 | 4940 | 32.3 ± 7.43 | 38.4 ± 6.15 | 29.9 ± 4.29 | 34.7 ± 2.51 | 0 | 5 | 0 | 24.7 ± 0.32 | 27.83 ± 0.17 | 12.7 ± 3.2 | 18.1 ± 1 | 25.2 ± 3.38 | 27.59 ± 0.17 | 24 | IC50 (Fyn A): 4.15 µM; Fa (fraction affected), combination with axitinib (ABL1 enzyme; TOS-1 0.375 µM + axitinib 0.125 µM): 0.3787; Fa (fraction affected), combination with axitinib (ABL1 enzyme; TOS-1 0.625 µM + axitinib 0.25 µM): 0.4837; Fa (fraction affected), combination with axitinib (ABL1 enzyme; TOS-1 1.25 µM + axitinib 0.5 µM): 0.7204; Fa (fraction affected), combination with axitinib (ABL1 enzyme; TOS-1 2.5 µM + axitinib 1 µM): 0.8412; Combination index [CI] (ABL1 enzyme): 0.5; Fa (fraction affected), single agent (ABL1 enzyme; dose 0.375 µM): 0.1126; Fa (fraction affected), single agent (ABL1 enzyme; dose 0.625 µM): 0.4149; Fa (fraction affected), single agent (ABL1 enzyme; dose 1.25 µM): 0.559; Fa (fraction affected), single agent (ABL1 enzyme; dose 2.5 µM): 0.5863
